Like-named read-outs stand apart in the source and are kept apart here.
Key:
[1] = biological target: T1, aldehyde oxidase (AO) (Homo sapiens, UniProt Q06278); test: In vitro AO inhibition (literature); details: cytosol, Figure 5
T1 sequence (Q06278 1-1338): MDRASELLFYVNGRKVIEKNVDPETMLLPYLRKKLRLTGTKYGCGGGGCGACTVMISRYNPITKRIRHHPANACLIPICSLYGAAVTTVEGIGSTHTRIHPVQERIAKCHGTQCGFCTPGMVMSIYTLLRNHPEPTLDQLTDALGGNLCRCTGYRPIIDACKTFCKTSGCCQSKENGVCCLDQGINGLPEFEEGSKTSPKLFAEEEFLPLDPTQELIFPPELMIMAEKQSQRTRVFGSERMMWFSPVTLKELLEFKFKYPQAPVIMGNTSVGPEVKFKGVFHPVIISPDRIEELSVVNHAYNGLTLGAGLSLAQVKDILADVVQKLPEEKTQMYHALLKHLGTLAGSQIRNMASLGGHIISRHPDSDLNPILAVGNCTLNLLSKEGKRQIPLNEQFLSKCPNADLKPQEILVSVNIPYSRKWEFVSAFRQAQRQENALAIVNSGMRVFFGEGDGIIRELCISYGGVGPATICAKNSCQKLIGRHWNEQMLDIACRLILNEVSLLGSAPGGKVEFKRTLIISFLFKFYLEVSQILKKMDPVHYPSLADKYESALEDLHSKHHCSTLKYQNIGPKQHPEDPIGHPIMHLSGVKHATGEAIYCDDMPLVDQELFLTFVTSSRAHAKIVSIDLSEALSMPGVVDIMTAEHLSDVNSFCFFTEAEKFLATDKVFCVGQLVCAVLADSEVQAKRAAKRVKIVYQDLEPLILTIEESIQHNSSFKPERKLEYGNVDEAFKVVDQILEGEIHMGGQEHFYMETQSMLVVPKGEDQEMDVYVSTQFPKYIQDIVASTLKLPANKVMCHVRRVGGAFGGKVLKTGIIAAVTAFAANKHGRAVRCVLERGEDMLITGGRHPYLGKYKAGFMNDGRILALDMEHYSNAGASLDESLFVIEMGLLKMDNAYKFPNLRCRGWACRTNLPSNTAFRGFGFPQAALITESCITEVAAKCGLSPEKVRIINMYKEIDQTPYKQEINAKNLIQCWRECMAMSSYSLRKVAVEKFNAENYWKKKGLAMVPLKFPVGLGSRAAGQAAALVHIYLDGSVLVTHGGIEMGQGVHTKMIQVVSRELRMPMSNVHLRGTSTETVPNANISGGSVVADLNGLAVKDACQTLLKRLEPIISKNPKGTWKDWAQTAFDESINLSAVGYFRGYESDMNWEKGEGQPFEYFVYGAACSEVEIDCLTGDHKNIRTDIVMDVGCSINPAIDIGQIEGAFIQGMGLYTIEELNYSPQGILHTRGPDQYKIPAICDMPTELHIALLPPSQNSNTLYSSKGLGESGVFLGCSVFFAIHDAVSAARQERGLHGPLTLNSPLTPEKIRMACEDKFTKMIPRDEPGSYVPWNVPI
Source text: (§1) Supplement 5. Exploratory analysis to evaluate potential AO-mediated DDI risks […]
(§2) Semi-mechanistic model for AO-mediated DDI risk predictions
(§3) Supp. Table 4. Summary of inhibitor parameters used in the semi -mechanistic static model to evaluate the risk of AO -mediated DDIs
(§4) Semi-mechanistic model for AO mediated DDI risk predictions: […]
(§5) using the semi-mechanistic static model with listed parameters in Suppl. Table 4. The most conservative approach is used for all compounds with maximum Cmax,u and minimum Ki,u data available. […]
(§6) [I] is the unbound concentration of inhibitors in the liver and was designated as the unbound maximum systemic concentration of inhibitors as a surrogate. 27 Due to the lack of AO kdeg values in the literature, the arithmetic means of all reported P450 kdeg (0.00026 min-1) was used.28, 29 […]
(§7) Table S4. Summary of inhibitor parameters used in the semi-mechanistic static model to evaluate the risk of […]
(§8) bSimcyp v.21 Compound Repository […]
(§9) dCorrected for the 0.05 mg/mL cytosolic protein from the measured fuinc at 1.5 mg/mL cytosolic protein34, 36

[2] = test system: UGT1A1; set-up: method as in suppl. 32; details: ref suppl. 32; cited from earlier work
[3] = Inhibitor plasma exposure and plasma binding (literature); assay type: in vivo, human; details: Figure 5
Source text: as §1, §2, §3, §4, §5, §6, §7, §8, §9

[4] = test system: UGT1A3; set-up: method as in suppl. 32; details: ref suppl. 32; cited from earlier work
[5] = biological target: T1, aldehyde oxidase (AO); details: cited from earlier work
[6] = Cytosolic binding (fucyt), dog liver cytosol; details: 1 mg/mL; n=3, mean (CV%)
Experimental: In vitro data were generated to inform the PBPK models of the selected drugs (Supplement 1 in Appendix S1; Table S1). Subcellular fractions of human and dog liver were sourced from XenoTech (Kansas City, KS, USA). In vitro CLint,u was measured with substrate depletion and binding assays for all compounds (1 μM) in human liver microsomes (HLM; 0.25–0.5 mg/mL) and HLC (1 mg/mL). HLC pool was prepared from livers perfused with Custodiol HTK (histidine tryptophan ketoglutarate) solution, marketed as having preserved “high AO/XO activity.”[15] Dog liver cytosols (DLC; 1 mg/mL) were used to investigate cytosolic binding in the absence of AO. Routine in vitro assays were used to quantify unbound fraction in plasma (fup), blood‐to‐plasma ratio (B/P), and apparent permeability (Papp) through transwell transport assays utilizing canine Mdr1 knockout and empty vector‐transfected MDCKI cells.
𝐶𝐿 = 𝑘 × 𝑣𝑜𝑙𝑢𝑚𝑒 𝑜𝑓 𝑖𝑛𝑐𝑢𝑏𝑎𝑡𝑖𝑜𝑛 (Eq S9)
Cytosolic binding (fucyt):
The fraction unbound in human liver cytosols (fucyt) of compounds was determined by equilibrium
dialysis using the RED device (Thermo Fisher, Waltham MA, USA) with a molecular weight cut-off of
8 kDa. Dog or human liver cytosols at 1 mg/mL with 1 µM of compounds (300 µL, n=3 per compound)
were added to the donor compartment in 100 mM potassium phosphate buffer with final DMSO
liver cytosols to inactivate AO, whereas dog was used as a natural AO knock-out model. 500 µL of 100
mM potassium phosphate buffer (pH 7.35) was added to the receiver chamber for each replicate.
RED device was then sealed with an adhesive foil and incubated on an orbital shaker at 450 rpm (VWR
Symphony) at 37°C with 5 % CO2. After reaching equilibrium for 4 hours, aliquots from both the
receiver (30µL) and donor (30µL) sides of the membrane were matrix matched, and then quenched with
180 µL of cold ACN with 100 nM propranolol (internal standard). The samples were placed in a
Beckman Coulter Allegra x 12R Centrifuge (Brea, CA) for 15 minutes at 3700 rpm. After centrifugation,
the supernatant of each sample was diluted 1:2 and analyzed by LC -MS/ MS. Matrix stability and
recovery were assessed in triplicates and followed identical sample preparation.
Microsomal binding (fumic):
(§10) The fraction unbound in human liver microsomes (fumic) of compounds was determined by equilibrium
(§11) dialysis using the high-throughput dialysis method 2 using membranes from HTDialysis, LLC (Gales
(§12) Ferry, CT) having 12 to 14 kDa molecular mass cutoff. Deactivated HLM (by leaving the HLM
(§13) incubation media on the bench overnight at ambient temperature) at 0.25 mg/mL with 2 µM of
(§14) compounds (a final concentration of DMSO as 1%) was added to the donor compartment in 50 mM
(§15) phosphate buffer containing 1 M MgCl2. (150 µL, n=4 per compound). 150 µL of Dulbecco’s PBS
(§16) buffer (pH 7.4) was added to the receiver chamber for each replicate. After reaching equilibrium for 6
(§17) h on a plate shaker (200 rpm) at 37°C in a humidified CO2 incubator (5% CO2), aliquots from both the
(§18) receiver (45 µL) and donor (15 µL) sides of the membrane were matrix matched and analyzed by LC-
(§19) MS/MS. Matrix stability (n=3) and % of recovery (n=4) were assessed.
(§20) Data analysis for binding in microsomal and cytosolic incubations:
(§21) Fraction unbound in microsomal (fumic) and cytosolic (fucyt) incubations were calculated via Eq. S10-11
(§22) based on the ratio of the peak areas of analyte and internal standard.
(§23) 𝑃𝑒𝑎𝑘 𝐴𝑟𝑒𝑎 𝑅𝑎𝑡𝑖𝑜 = (𝑃𝑒𝑎𝑘 𝐴𝑟𝑒𝑎 𝑜𝑓 𝐴𝑛𝑎𝑙𝑦𝑡𝑒)/(𝑃𝑒𝑎𝑘 𝐴𝑟𝑒𝑎 𝑜𝑓 𝐼𝑛𝑡𝑒𝑟𝑛𝑎𝑙 𝑆 tan 𝑑 𝑎𝑟𝑑) (Eq. S10)
(§24) 𝑓𝑢𝑚𝑖𝑐 𝑜𝑟 𝑓𝑢𝑐𝑦𝑡 = (𝑃𝑒𝑎𝑘 𝐴𝑟𝑒𝑎 𝑅𝑎𝑡𝑖𝑜 𝑖𝑛 𝑟𝑒𝑐𝑒𝑖𝑣𝑒𝑟 𝑐𝑜𝑚𝑝𝑎𝑟𝑡𝑚𝑒𝑛𝑡)/
(§25) concentration (0.5 mg/mL) using Hallifax and Houston algorithm (Hallifax and Houston, 2006). Matrix
(§26) stability and recovery were assessed using Eq. S12 and Eq. S13.
(§27) %𝑠𝑡𝑎𝑏𝑖𝑙𝑖𝑡𝑦 = (𝐴𝑣𝑒𝑟𝑎𝑔𝑒 𝑝𝑒𝑎𝑘 𝑎𝑟𝑒𝑎 𝑖𝑛 𝑚𝑎𝑡𝑟𝑖𝑥 𝑎𝑡 𝑡ℎ𝑒 𝑒𝑛𝑑 𝑜𝑓 𝑖𝑛𝑐𝑢𝑏𝑎𝑡𝑖𝑜𝑛)/
(§28) (𝐴𝑣𝑒𝑟𝑎𝑔𝑒 𝑝𝑒𝑎𝑘 𝑎𝑟𝑒𝑎 𝑎𝑡 𝑇 = 0) × 100 (Eq. S12)
%𝑟𝑒𝑐𝑜𝑣𝑒𝑟𝑦 = (𝐴 + 𝐵)/𝐶 × 100 (Eq. S13)
(§29) where A is the average peak area ratio of all matrix samples, B is the average peak area ratio

[7] = Cytosolic binding (fucyt), human liver cytosol with AO inhibitor; details: 1 mg/mL; n=3, mean (CV%)
[8] = without inhibitor; cited from earlier work
[9] = cited from earlier work
[10] = cited from earlier work; remark: listed apart in the source
[11] = Blood-to-plasma ratio (B/P); assay type: in vitro ADME, human
Source text: Determination of blood to plasma ratio (B/P):
Whole human blood was collected on the day of the experiment from healthy volunteers. The collection protocol was approved by an independent ethical committee and all donors signed the consent forms. All samples were registered in the Janssen Biobank.
Prewarmed blood aliquots were mixed with the compounds (final concentrations shown in Suppl. Table 5) with a final organic DMSO solvent concentration of ≤0.1% (v/v). After gentle mixing to avoid haemolysis, blood aliquots were immediately collected for protein precipitation (1:1:8 ratios of blood sample:DMSO:ACN) and centrifugation (10 minutes, 3800 g) and the supernatant was used as a 0-minute reference blood sample. At the same time, blood aliquots were taken and centrifuged (10 minutes, 1200 g) to obtain the plasma portion. Plasma aliquots were then immediately collected for protein precipitation (1:1:8 ratios of plasma sample:DMSO:ACN) and centrifugation (10 minutes, 3800 g) and the supernatant was used as a 0-minute reference plasma sample. The remainder of the blood fraction was incubated (30 min at 37 °C). Following incubation, 30 -minute blood and plasma samples were taken and prepared as described for the reference 0-minute samples.
Mean compound concentration values (n=3 replicates) were calculated for both the blood and plasma samples. A blood-to-plasma concentration ratio was then determined using Eq. S4. […]

[12] = Plasma protein binding (fup), rapid equilibrium dialysis; assay type: in vitro ADME, human; details: male, human, plasma, 20 h, 1 µM
Experimental: (differing in 2 donors) were used for activity and microsomal binding assays, respectively.
The human biological samples were sourced ethically, and their research use was in accord with the terms of the informed consents under an IRB/EC approved protocol.
Determination of plasma protein binding (fup):
Human plasma (male, K2EDTA) was obtained from BioIVT (Baltimore, MD, USA). A pool of n=20 donors was prepared in-house (batch: 16062022). The plasma protein binding of compounds in human was determined by equilibrium dialysis using the rapid equilibrium dialysis (RED) device (Thermo […]
Frozen blank human plasma […]
solution to a final concentration of 1 µM (0.5 % DMSO). 300 µ L of the fortified plasma samples were subjected to dialysis against 500 µL PBS buffer at pH 7.4, for 6 h at 37 °C in triplicate. After dialysis, 200 µl aliquots of the buffer and the plasma compartments were transferred into micronic tubes. To minimize the potential for non -specific binding to the micronic tubes the buffer sam ples were collected on to 50µl of 10 % bovine serum albumin (BSA). For the assessment of test compound stability in plasma, 300 µl aliquots of the spiked plasma solutions were transferred into micronic tubes and incubated in an air heated incubator at 37°C without shaking for 4 and 20 hours. The remaining spiked protein solutions were frozen and used to measure the initial start concentration ( C0) to calculate the recovery. Sample analysis was achieved by LC -MS/MS and absolute quantification of the drug lev els in the buffer and plasma compartments was achieved via a matrix matched calibration curve (in the presence of an internal standard tolbutamide). All buffer and plasma sample sets were matrix matched […]
for analysis. The samples were centrifuged (15 minutes, 3400 g) and supernatants were transferred to a fresh plate for analysis. The unbound concentration (Cu), and the total concentration (CED) were determined by measurement of the concentration of the test compound in the buffer and plasma compartments of the dialysis cells, respectively. The fraction unbound was calculated using Eq. S1.
fuplasma = Cu/CED (Eq. S1)
The percentage recovery was calculated as the ratio of the sum of the amount in the buffer (Au) and plasma (AED) compartments to the amount at time zero (A0) (Eq. S2). The percentage stability was calculated as the ratio of the concentration of the test compound at the end of the incubation (C t) time […]
% recovery = (( Au + AED ) / A0 ) × 100 (Eq. S2)

[13] = Microsomal binding (fumic)
Experimental: Microsomal binding (fumic):
as §10, §11, §12, §13, §14, §15, §16, §17, §18, §19, §20, §21, §22, §23, §24, §25, §26, §27, §28
%𝑟𝑒𝑐𝑜𝑣𝑒𝑟𝑦 = (𝐴 + 𝐵)/𝐶 × 100 (Eq. S13)
as §29
of all buffer samples multiplied with the buffer dilution factor and C is the average peak area ratio of

[14] = Microsomal clearance incubations (substrate depletion); details: both, human, liver microsomes
[15] = In vitro permeability (Papp), transwell transport; details: dog, MDCK
[16] = cited from earlier work; for fmAO: ref suppl. 8-13; for fmCYP3A4: ref suppl. 8-12
[17] = test system: CYP3A4; details: cited from earlier work
[18] = set-up: method as in earlier work; details: menadione 100 µM; ref 45 (suppl.); cited from earlier work
[19] = iv: zaleplon 5 (F), ziprasidone 5, zoniporide 80 mg, observed, ref suppl. 22,23,13
[20] = corrected with Hallifax&Houston algorithm
[21] = DDI study with rifampicin (capmatinib 400, idelalisib 150, lenvatinib 24 mg) or carbamazepine (ziprasidone 20 mg), observed, ref suppl. 15,18,21,25
[22] = with itraconazole (capmatinib 200 mg) or ketoconazole (idelalisib 400, lenvatinib 5, ziprasidone 40 mg), observed, ref suppl. 15,10,17,20,24
[23] = with rifampicin (capmatinib 400, idelalisib 150, lenvatinib 24 mg) or carbamazepine (ziprasidone 20 mg), observed, ref suppl. 15,18,21,25

## C#Cc1cccc(Nc2ncnc3cc4c(cc23)OCCOCCOCCO4)c1 [Icotinib]
[1]; KI,u
  Ki: 0.92 µM
[1]; Ki,u
  Ki: 0.35 µM
[2]
  IC50: 12.2 µM
[3]
  Cmax,u: 570 nM
[4]
  Ki: 25.6 µM
[5]; ref suppl. 30, 31, 32, 35, 59
  Mode of inhibition: Time-dependent
[5]; ref suppl. 32
  Maximal inactivation rate (kinact): 0.55 min⁻¹

## O=C1Cc2cc(CCN3CCN(c4nsc5ccccc45)CC3)c(Cl)cc2N1 [Ziprasidone]
[6]
  fucyt, Dog Liver Cytosol with 50 uM Hydralazine: 0.288 (3.81)
[7]
  fucyt, Human Liver Cytosol with 5 uM Raloxifene: 0.337 (4.82)
  fucyt, Human Liver Cytosol with 50 uM Hydralazine: 0.356 (2.53)
[8]
  HH CLint (no reaction phenotyping): 21.8[5], ^f μL/min/10^6 hepatocytes
[9]; 47 (per cell)
  pKa1: 8.24[12]
  pKa2: 6.31[12]
[9]; octanol-water, 12 (per cell)
  logP: 4.53[12]
[10]; i.v., ref Table S2/S3 studies
  CLiv/oral [CV%]: 23.04 [14] (i.v.) L/h
[10]; [19]
  AUCinf: 217 (20) ng.h/mL
  Cmax: 83 (21) ng/mL
[10]; observed, ref Table S2/S3 studies
  CLRenal: Negligible
[10]; oral: capmatinib 200, idelalisib 150, lenvatinib 10, zaleplon 5 (F), ziprasidone 20 mg, observed mean or geomean (CV%), ref suppl. 8,14,16,19,22,23
  Cmax: 64 (28) ng/mL
[10]; oral: capmatinib 200, idelalisib 150, lenvatinib 10, zaleplon 5 (F), ziprasidone 20 mg, observed, ref suppl. 8,14,16,19,22,23
  AUCinf: 514 (27) ng.h/mL
[11]; 50 ng/mL
  B/P: 0.44
[11]; 1000 ng/mL
  B/P: 0.47
[11]; assumed from measured 0.455
  B/P (assumed PBPK input): 0.55
[12]
  % Stability in plasma: 96.2%
[13]; at incubation protein concentration (0.25 or 0.5 mg/mL)
  fumic (PBPK input): 0.210
[13]; [20]
  Predicted fumic for 0.5 mg/mL: 0.118
  Predicted fumic for 1 mg/mL: 0.063
[14]
  microsomal CLint at 1 µM: 71.9 µL/min/mg
[15]
  Papp A→B at 120 min, 5 µM: 3.15 ×10⁻⁶ cm/s
  Papp B→A at 120 min, 5 µM: 0.843 ×10⁻⁶ cm/s
  efflux ratio at 120 min, 5 µM: 0.268
[16]; measured in excreta
  fmAO: 0.67
[16]; observed (mass balance), min-max where uncertain, Table S10
  fmAO: 67
[16]; observed (mass balance), min-max where uncertain
  fmCYP3A4: 33
[16]
  fmCYP3A4: 0.33
[17]; DDI study with itraconazole (capmatinib 200 mg) or ketoconazole (idelalisib 400, lenvatinib 5, ziprasidone 40 mg), observed geomean (CV%), ref suppl. 15,10,17,20,24
  Cmax, control: 89 (30) ng/mL
[17]; DDI study with itraconazole (capmatinib 200 mg) or ketoconazole (idelalisib 400, lenvatinib 5, ziprasidone 40 mg), observed, ref suppl. 15,10,17,20,24
  AUCinf, control: 899 (20) ng.h/mL
[17]; [21]
  AUCinf, control (AUC0-12 for ziprasidone): 495 (26) ng.h/mL
  Cmax, control: 79 (24) ng/mL
[17]; [22]
  AUCinf, interaction: 1199 (18) ng.h/mL
  Cmax, interaction: 119 (25) ng/mL
[17]; [23]
  AUCinf, interaction (AUC0-12 for ziprasidone): 285 (28) ng.h/mL
  Cmax, interaction: 48 (27) ng/mL

## CC1=CC(=O)c2ccccc2C1=O [menadione]
[18]
  inhibition of ziprasidone reduction: 90%

— PMC11706420, “Establishing a physiologically based pharmacokinetic framework for aldehyde oxidase and dual aldehyde oxidase‐CYP substrates” (CPT: Pharmacometrics & Systems Pharmacology, 2024)
